Data: US9512108B2, “9,9,10,10-Tetrafluoro-9,10-dihydrophenanthrene hepatitis C virus inhibitor and application thereof” (NANJING SANHOME PHARMACEUTICAL CO., LTD., priority 2013, dated 2016)

Columns and labels:
Type in all cases: cell-based
HCV genotype 1a replicon = test: Anti-HCV-1a replicon activity (luciferase, Bright-Glo); conditions: Hepatitis C virus, Huh-7, 72 h, read-out: EC50 against HCV-1a replicon
Protocol: (§1) 1) Preparation of compounds: adding 75 μl of the compounds of the present invention at the above concentration gradient to a 96-well plate using POD810 system, with each concentration for each compound in duplicate;
(§2) 2) Preparation of cells: collecting HCV 1b replicon cells in logarithmic phase and resuspending them in DMEM complete medium, and then adding 75 μl of the cell suspension to each well of the above 96-well plate (8×10^3 cells/well); at the same time, establishing zero percent effect (ZPE) control group and hundred percent effect (HPE) control group, with ZPE group using complete culture medium containing 0.5% DMSO instead of the compound, and the HPE group merely containing DMEM medium in the wells.
(§3) 3) Cell culture: placing the 96-well plate in a 37° C., 5% CO2 incubator and culturing for 3 days.
(§4) 5) Anti-HCV replicon activity assay: adding luciferase luminescence substrate Bright-Glo to each well, and detecting luminescence signal values using the multimode microplate reader within 5 min, with the raw data (RLU) being used for calculation of the anti-HCV activities of the compounds;
(§5) 6) Data processing: processing the raw data using the following formula into the inhibition percentage of the compound against HCV replicon (Inhibition %) and the percentage of cell viability (Viability %): Inhibition %=(RLUZPE−RLUCPD)/(RLUZPE−RLUHPE)×100 Viability %=(RFUCPD−RFUHPE)/(RFUZPE−RFUHPE)×100 wherein CPD: the fluorescence signal value of the well of the compound; ZPE (zero percent effect): the fluorescence signal value of the zero percent effect control; HPE (hundred percent effect): the fluorescence signal value of the hundred percent effect control.
(§6) The Inhibition % and Viability % were introduced into GraphPad Prism software for data processing, respectively, to obtain the half effective concentration EC50 of the compound against HCV replicon and the half cytotoxic concentration CC50.
(§7) HCV 1a replicon cells, i.e., Huh7 cell line stably transfected with HCV genotype 1a replicon (provided by WuXi AppTec (Shanghai) Co., Ltd.) were used as the experimental cells. As described above for the HCV 1b replicon cell system, the HCV genotype 1a replicon cell systems were similarly prepared.
(§8) The anti-HCV-1a activities of the compounds of the present invention were tested according to the method for testing the anti-HCV-1b replicon activity in Experimental Example 1.

[1] = Cell viability test (CellTiter-Fluor) in HCV 1b replicon cells; conditions: human, Huh7 cells stably transfected with HCV genotype 1b replicon; HCV 1b replicon Huh7 cells, 3 days culture; read-out: CC50 (half cytotoxic concentration)
Protocol: (§9) Each of the compounds prepared in the above examples of the present invention was dissolved at 10 mM in DMSO, then diluted to 50 μM with DMEM complete medium, then diluted to 20 nM with complete medium containing 0.5% DMSO, and then serially diluted by 3-fold, to obtain a total of 10 concentrations.
(§10) HCV 1b replicon cells, i.e., Huh7 cell line stably transfected with HCV genotype 1b replicon, were provided by WuXi AppTec (Shanghai) Co., Ltd. Specific preparation methods of Huh7 lb replicon cell system can be found in Lohmann V, Korner F, Koch J, Herian U, Theilmann L, Bartenschlager R., Replication of subgenomic hepatitis C virus RNAs in a hepatoma cell line, Science 285 (5424): 110-113 (1999).
as §1, §2, §3
(§11) 4) Cell viability test: after adding detection reagent for fluorescence assay of cell growth to each well and culturing the cells in a 37° C., 5% CO2 incubator for one hour, detecting the fluorescence signal values using the multimode microplate reader, with the raw data (RFU) being used for calculation of the cytotoxicity of the compounds;
as §5, §6

HCV genotype 1b replicon = test: Anti-HCV-1b replicon activity (luciferase, Bright-Glo); conditions: Hepatitis C virus, Huh-7, 72 h, read-out: EC50 against HCV-1b replicon
Protocol: as §9, §10, §1, §2, §3, §4, §5, §6

[2] = Cell viability test (CellTiter-Fluor) in HCV 1a replicon cells; conditions: human, Huh7 cells stably transfected with HCV genotype 1a replicon; HCV 1a replicon Huh7 cells, 3 days culture; read-out: CC50 (half cytotoxic concentration)
Protocol: as §11, §5, §6, §7, §8

| Compound | EC50 (HCV genotype 1a replicon) | CC50 at 3 days [1] | EC50 (HCV genotype 1b replicon) | CC50 at 3 days [2] |
| --- | --- | --- | --- | --- |
| COC(=O)N[C@H](C(=O)N1CCC[C@H]1c1ncc(-c2ccc3c(c2)C(F)(F)C(F)(F)c2cc(-c4cnc([C@@H]5CCCN5C(=O)[C@@H](NC(=O)OC)C(C)C)[nH]4)ccc2-3)[nH]1)C(C)C [Example 1, Dimethyl (2S,2′S)-1,1′-((2S,2′S)-2,2′-(5,5′-(9,9,10,10-tetrafluoro-9,10-dihydrophenanthren-2,7-diyl)bis(1H-imidazol-5,2-diyl))bis(pyrrolidin-2,1-diyl))bis(3-methyl-1-oxobutan-2,1-diyl)dicarbamate] | 0.19 nM | > 10 nM | 0.0046 nM | > 10 nM |
| COC(=O)N[C@H](C(=O)N1CC2(CC2)C[C@H]1c1nc(-c2ccc3c(c2)C(F)(F)C(F)(F)c2cc(-c4ccc5nc([C@@H]6CCCN6C(=O)[C@@H](NC(=O)OC)C(C)C)[nH]c5c4)ccc2-3)c[nH]1)C(C)C [Example 12, Methyl N-((2S)-1-((S)-2-(6-(7-((S)-2-(5-((S)-2-((methoxycarbonyl)amino)-3-methylbutanoyl)-5-azaspiro[2.4]heptan-6-yl)-1H-imidazol-5-yl)-9,9,10,10-tetrafluoro-dihydrophenanthren-2-yl)-1H-benzo[d]imidazol-2-yl)pyrrolidin-1-yl)-3-methyl-1-oxobutan-2-yl)carbamate] | 0.061 nM | > 10 nM | 0.008 nM | > 10 nM |
